# Reference: patent publication US12486254B2, “Uracil derivatives for stimulating read-through of premature termination codons” (Southern Research Institute, priority 2022, dated 2025)
# Tested on: W134X-CF#14 FRT
# Test: Read-through of a premature termination codon, W134X-CF#14 FRT data, with G418
# Assay type: cell-based
# Conditions: in presence of G418
# Method: (§1) The compounds shown in Table 1 were evaluated for their ability to stimulate read-through of a premature termination codon, and their respective activities are shown in Tables 2 and 3 below.
row,Compound,EC50
1,CCn1c(=O)c(C(=O)CN(CC(N)=O)C(C)(C)C)c(N)n(Cc2ccccc2)c1=O [1.32],72.3 µM
2,CCn1c(=O)c(C(=O)CN2CCCC[C@@H]2C(=O)NCc2ccccc2F)c(N)n(Cc2ccccc2)c1=O [1.142],13.1 µM
3,CCN(CC(=O)c1c(N)n(Cc2ccccc2)c(=O)n(CC)c1=O)CC(=O)c1c(N)n(Cc2ccccc2)c(=O)n(CC)c1=O [1.37],12.9 µM
4,CCn1c(=O)c(C(=O)CN2CCCCC2C(N)=O)c(N)n(Cc2cccc(C)c2)c1=O (centres unmarked) [1.119],13.3 µM
5,CC(C)N(CC(N)=O)CC(=O)c1c(N)n(Cc2cccs2)c(=O)n(Cc2cccs2)c1=O [1.100],16.5 µM
6,CCn1c(=O)c(C(=O)CN2CCCC2C(=O)N(C)C)c(N)n(Cc2ccccc2)c1=O (centres unmarked) [1.98],43.1 µM
7,CCn1c(=O)c(C(=O)CN(C)CC(=O)c2c(N)n(Cc3ccccc3)c(=O)n(CC)c2=O)c(N)n(Cc2ccccc2)c1=O [1.38],11.9 µM
8,CC(C)n1c(=O)c(C(=O)CN2CCCCC2C(N)=O)c(N)n(Cc2ccccc2)c1=O (centres unmarked) [1.44],22.7 µM
9,CC(C)N(CC(N)=O)CC(=O)c1c(N)n(Cc2ccccc2)c(=O)n(C)c1=O [1.21],43.2 µM
10,CCn1c(=O)c(C(=O)CN2CCCCC2C(=O)N(C(C)C)C(C)C)c(N)n(Cc2ccccc2)c1=O (centres unmarked) [1.88],53.8 µM
11,CCn1c(=O)c(C(=O)CN2CCCCC2C(=O)N2CCc3ccccc3C2)c(N)n(Cc2ccccc2)c1=O (centres unmarked) [1.141],12.9 µM
12,CN(C)C(=O)C1CCCCN1CC(=O)c1c(N)n(Cc2cccs2)c(=O)n(Cc2cccs2)c1=O (centres unmarked) [1.102],6.2 µM
13,CCn1c(=O)c(C(=O)CN2CCCC[C@@H]2C(=O)NCC(F)(F)F)c(N)n(Cc2ccccc2)c1=O [1.159],4.91 µM
14,COc1cccc(Cn2c(N)c(C(=O)CN3CCCCC3C(N)=O)c(=O)n(Cc3cccc(OC)c3)c2=O)c1 (centres unmarked) [1.116],23.9 µM
15,CCn1c(=O)c(C(=O)CN2CCCC[C@@H]2C(=O)NCC(C)(C)C)c(N)n(Cc2ccccc2)c1=O [1.157],19.5 µM
16,CCn1c(=O)c(C(=O)CN2CCCC2C(=O)NCc2ccccc2)c(N)n(Cc2ccccc2)c1=O (centres unmarked) [1.124],24.1 µM
17,CCn1c(=O)c(C(=O)CN(CC(N)=O)C(C)C)c(N)n(Cc2ccc(F)cc2C)c1=O [1.153],64.8 µM
18,NC(=O)C1CCCCN1CC(=O)c1c(N)n(Cc2cccc(F)c2)c(=O)n(Cc2cccc(F)c2)c1=O (centres unmarked) [1.95],21.1 µM
19,CCn1c(=O)c(C(=O)CN(CC(N)=O)C(C)C)c(N)n(Cc2ccc(F)c(OC)c2)c1=O [1.170],≥ 100 µM
20,NC(=O)C1CCCCN1CC(=O)c1c(N)n(C2CC2)c(=O)n(Cc2ccccc2)c1=O (centres unmarked) [1.46],≥ 100 µM
21,CCn1c(=O)c(C(=O)CN2CCCC[C@@H]2C(=O)NCC(C)C)c(N)n(Cc2ccccc2)c1=O [1.156],11.4 µM
22,CC1Cc2ccccc2N1CC(=O)c1c(N)n(Cc2ccccc2)c(=O)n(C)c1=O (centres unmarked) [1.61],32.3 µM
23,CCn1c(=O)c(C(=O)CN(CC(N)=O)C(C)C)c(N)n(Cc2cccs2)c1=O [1.111],5.19 µM
24,COc1ccccc1Cn1c(N)c(C(=O)CN2CCCCC2C(N)=O)c(=O)n(Cc2ccccc2OC)c1=O (centres unmarked) [1.110],25 µM
25,CCn1c(=O)c(C(=O)CN2CCCC[C@@H]2C(=O)N2CCc3ccccc3C2)c(N)n(Cc2ccccc2)c1=O [1.143],6.48 µM
26,CCn1c(=O)c(C(=O)CN2CCCCC2C(=O)OC)c(N)n(Cc2ccccc2)c1=O (centres unmarked) [1.68],19.7 µM
27,NC(=O)C1CCCCN1CC(=O)c1c(N)n(Cc2ccccc2F)c(=O)n(Cc2ccccc2F)c1=O (centres unmarked) [1.92],24.2 µM

row,Compound,EC50
1,CC[C@H]1CCCCN1CC(=O)c1c(N)n(Cc2ccc(F)cc2)c(=O)n(CC)c1=O [1.199],9.5 µM
2,CCn1c(=O)c(C(=O)CN2CCCCC2C2CCC2)c(N)n(Cc2ccc(F)cc2)c1=O (centres unmarked) [1.210],6.68 µM
3,CCn1c(=O)c(C(=O)CN(C(C)C)C(C)C(N)=O)c(N)n(Cc2ccccc2)c1=O (centres unmarked) [1.71],70.4 µM
4,Cc1cccc(Cn2c(N)c(C(=O)CN3CCCCC3C(N)=O)c(=O)n(Cc3cccc(C)c3)c2=O)c1 (centres unmarked) [1.109],7.47 µM
5,CCn1c(=O)c(C(=O)CN2CCCCC2C(N)=O)c(N)n(CC2CCCCC2)c1=O (centres unmarked) [1.84],48.2 µM
6,CCOc1ccc(C(C)NCC(=O)c2c(N)n(Cc3ccc(F)cc3)c(=O)n(CC)c2=O)cc1OCC (centres unmarked) [1.179],10.1 µM
7,NC(=O)C1CCCCN1CC(=O)c1c(N)n(Cc2ccccc2)c(=O)n(C2CC2)c1=O (centres unmarked) [1.45],≥ 100 µM
8,Cc1ccc(Cn2c(N)c(C(=O)CN3CCCCC3C(N)=O)c(=O)n(Cc3ccc(C)cc3)c2=O)cc1 (centres unmarked) [1.114],18.1 µM
9,CCn1c(=O)c(C(=O)CN(CCNC(=O)OC(C)(C)C)C(C)C)c(N)n(Cc2ccccc2)c1=O [1.26],155 µM
10,CCn1c(=O)c(C(=O)CN(CC(=O)OC)C(C)C)c(N)n(Cc2ccc(F)cc2)c1=O [1.213],10.2 µM
11,CCn1c(=O)c(C(=O)CN2CCCC[C@@H]2C(=O)NCC(F)(F)F)c(N)n(Cc2ccc(F)cc2)c1=O [1.197],3.91 µM
12,CCn1c(=O)c(C(=O)CN2CCCCC2C(=O)NCCc2ccccc2)c(N)n(Cc2ccccc2)c1=O (centres unmarked) [1.136],8.25 µM
13,Cn1c(=O)c(C(=O)CN2CCN(c3ccccc3F)CC2)c(N)n(Cc2ccccc2)c1=O [1.43],49.3 µM
14,CCN(CC)C(=O)C1CCCN1CC(=O)c1c(N)n(Cc2ccccc2)c(=O)n(CC)c1=O (centres unmarked) [1.99],28.3 µM
15,CCn1c(=O)c(C(=O)CN2CCCC[C@H]2C(N)=O)c(N)n(Cc2ccccc2)c1=O [1.49],59.4 µM
16,CCn1c(=O)c(C(=O)CN2CCCCC2)c(N)n(Cc2ccc(F)cc2)c1=O [1.193],47.2 µM
17,CCn1c(=O)c(C(=O)CN2CCCC[C@@H]2C(=O)NCc2cccc(F)c2)c(N)n(Cc2ccccc2)c1=O [1.144],9.35 µM
18,CCn1c(=O)c(C(=O)CN2CCCCC2C(N)=O)c(N)n(Cc2ccc(F)c(F)c2)c1=O (centres unmarked) [1.147],52.5 µM
19,CCn1c(=O)c(C(=O)CN2CCCCC2C(N)=O)c(N)n(Cc2ccc(F)c(C)c2)c1=O (centres unmarked) [1.163],8.05 µM
20,CCn1c(=O)c(C(=O)CN2CCCC[C@@H]2C(N)=O)c(N)n(Cc2ccc(C(F)(F)F)cc2)c1=O [1.178],21.2 µM
21,CCn1c(=O)c(C(=O)CN2CCCCC2C(N)=O)c(N)n(Cc2ccc(F)cc2F)c1=O (centres unmarked) [1.146],8.5 µM
22,CCn1c(=O)c(C(=O)CN(C)CC(N)=O)c(N)n(Cc2ccccc2)c1=O [1.41],157 µM
23,CCn1c(=O)c(C(=O)CN2CCN(C(=O)OC(C)(C)C)CC2C(N)=O)c(N)n(Cc2ccccc2)c1=O (centres unmarked) [1.52],≥ 100 µM
24,CCn1c(=O)c(C(=O)CN2CCCCC2C(N)=O)c(N)n(Cc2cccc(F)c2)c1=O (centres unmarked) [1.134],17.4 µM
25,CCn1c(=O)c(C(=O)CN2CCCCC2C(=O)N2CCCC2)c(N)n(Cc2ccccc2)c1=O (centres unmarked) [1.85],28.1 µM
26,NC(=O)C1CCCCN1CC(=O)c1c(N)n(Cc2cccs2)c(=O)n(Cc2cccs2)c1=O (centres unmarked) [1.101],12.8 µM
27,CCn1c(=O)c(C(=O)CN2CCC[C@@H]2C(N)=O)c(N)n(Cc2ccccc2)c1=O [1.34],53 µM

row,Compound,EC50
1,CCn1c(=O)c(C(=O)CNc2cccc(C(N)=O)c2)c(N)n(Cc2ccc(F)cc2)c1=O [1.208],11.4 µM
2,CCNC(=O)C1CCCCN1CC(=O)c1c(N)n(Cc2ccccc2)c(=O)n(CC)c1=O (centres unmarked) [1.80],3.89 µM
3,CCn1c(=O)c(C(=O)CN2CCCCC2C(N)=O)c(N)n(Cc2ccc(F)cc2Cl)c1=O (centres unmarked) [1.173],42.1 µM
4,CCn1c(=O)c(C(=O)CN2CCCCC2C(=O)NC(C)C)c(N)n(Cc2ccccc2)c1=O (centres unmarked) [1.70],27.9 µM
5,CCn1c(=O)c(C(=O)CN2CCCC[C@@H]2C(=O)NCc2ccc(F)cc2)c(N)n(Cc2ccccc2)c1=O [1.155],3.16 µM
6,CCn1c(=O)c(C(=O)CN2CCCC[C@@H]2C(=O)NCc2ccc(F)cc2)c(N)n(Cc2ccc(F)cc2)c1=O [1.189],2.56 µM
7,CCn1c(=O)c(C(=O)CN2CCCC2C(=O)N2CCOCC2)c(N)n(Cc2ccccc2)c1=O (centres unmarked) [1.121],61.3 µM
8,CCn1c(=O)c(C(=O)CN2CCCCC2C(N)=O)c(N)n(Cc2ccc(F)cc2C)c1=O (centres unmarked) [1.161],13.9 µM
9,CCn1c(=O)c(C(=O)CN2CCCCC2C(=O)Nc2ccccc2)c(N)n(Cc2ccccc2)c1=O (centres unmarked) [1.97],62.5 µM
10,CCn1c(=O)c(C(=O)CN2CCCC2c2cccn2C)c(N)n(Cc2ccccc2)c1=O (centres unmarked) [1.63],79.9 µM
11,CCC(C)C1CCCCN1CC(=O)c1c(N)n(Cc2ccc(F)cc2)c(=O)n(CC)c1=O (centres unmarked) [1.202],5.51 µM
12,CCn1c(=O)c(C(=O)CN(CCC(N)=O)C(C)C)c(N)n(Cc2ccc(F)cc2)c1=O [1.204],12.5 µM
13,NC(=O)C1CCCCN1CC(=O)c1c(N)n(CC2CCC2)c(=O)n(Cc2ccc(F)cc2)c1=O (centres unmarked) [1.160],28.4 µM
14,CCn1c(=O)c(C(=O)CNC2CCCCC2)c(N)n(Cc2ccccc2)c1=O [1.13],174 µM
15,CCn1c(=O)c(C(=O)CN2CCCCC2C(=O)NC(C)(C)C)c(N)n(Cc2ccccc2)c1=O (centres unmarked) [1.79],49.3 µM
16,CCn1c(=O)c(C(=O)CN2CCCCC2C(=O)NCc2ccccc2C)c(N)n(Cc2ccccc2)c1=O (centres unmarked) [1.135],13.5 µM
17,CCN(CC)C(=O)C1CCCCN1CC(=O)c1c(N)n(Cc2ccccc2)c(=O)n(CC)c1=O (centres unmarked) [1.81],3.92 µM
18,Cc1ccccc1Cn1c(N)c(C(=O)CN2CCCCC2C(N)=O)c(=O)n(Cc2ccccc2C)c1=O (centres unmarked) [1.108],25 µM
19,CCn1c(=O)c(C(=O)CN2CCCCC2C(N)=O)c(N)n(Cc2ccccc2F)c1=O (centres unmarked) [1.137],5.08 µM
20,CCn1c(=O)c(C(=O)CN2CCCCC2C(N)=O)c(N)n(Cc2ccc(F)cc2OC)c1=O (centres unmarked) [1.154],68.5 µM
21,CCN(CC(=O)c1c(N)n(Cc2ccccc2)c(=O)n(CC)c1=O)C(C(N)=O)C(C)C (centres unmarked) [1.77],31.2 µM
22,CCn1c(=O)c(C(=O)CN2CCCC2C(=O)N2CCCCC2)c(N)n(Cc2ccccc2)c1=O (centres unmarked) [1.122],30.4 µM
23,CCn1c(=O)c(C(=O)CN2CCCCC2C)c(N)n(Cc2ccc(F)cc2)c1=O (centres unmarked) [1.200],34.9 µM
24,COc1ccc(Cn2c(N)c(C(=O)CN3CCCCC3C(N)=O)c(=O)n(Cc3ccc(OC)cc3)c2=O)cc1 (centres unmarked) [1.115],31.9 µM
25,CC(C)Cn1c(=O)c(C(=O)CN2CCCCC2C(N)=O)c(N)n(Cc2ccccc2)c1=O (centres unmarked) [1.75],28 µM

# Tested on: G542X#10-HBE5x5
# Test: Read-through of a premature termination codon, G542X#10-HBE5x5 (Table 3)
# Assay type: cell-based
# Conditions: with G418
# Method: as §1
row,Compound,EC50
1,CCn1c(=O)c(C(=O)CNC(COC)c2ccccc2)c(N)n(Cc2ccc(F)cc2)c1=O (centres unmarked) [1.180],73.2 µM
